# According to US11419852B2, “Beta-lactam compounds or salts thereof for use in long-acting prevention or treatment of a glucose metabolism disorder” (GLYCOLYSIS BIOMED CO., LTD., priority 2019, dated 2022):
# Marks after values point to notes of the source that are not given here.
# Key:
# Type in all cases: in vivo
# [1] = Body weight of mice recorded weekly
# Protocol: (§1) Four to five weeks old db/db mice (BKS.Cg-Dock7^m+/+Lepr^db/JNarl) and m/m mice (BKS.Cg-Dock7^m+/Dock7^m+) were obtained from National Laboratory Animal Center ([…], Taiwan). […] PMI Nutrition International, Brentwood, Mo.) and water ad libitum. […] The mouse body weight (bw) and the amounts of water and food intake were recorded weekly for the entire study period.
# [2] = system: db/db mice; test: Oral glucose tolerance test (OGTT); set-up: OGTT AUC: unit not given here
# Protocol: Four to five weeks old db/db mice (BKS.Cg-Dock7^m+/+Lepr^db/JNarl) and m/m mice (BKS.Cg-Dock7^m+/Dock7^m+) were obtained from National Laboratory Animal Center ([…], Taiwan). […] PMI Nutrition International, Brentwood, Mo.) and water ad libitum. […] Blood was sampled from the tail vein, and FPG levels were measured and recorded as the basic blood glucose levels. […] The total area under the curve (AUC) in OGTT was plotted and calculated by the Area Under Coordinates Program (StatsToDo Server, Department of Obstetrics and Gynecology, Chinese University of Hong Kong).
# [3] = system: db/db mice; test: Plasma biochemical parameters (AST, ALT, BUN, Cr, HbA1c); settings: Ex 3: db/db mice, daily dosing 3 weeks at doses of Table 10; week 9
# Protocol: Inflammatory markers such as serum aspartate aminotransferase (AST), alanine aminotransferase (ALT), blood urea nitrogen (BUN), creatinine (Cr), and hemoglobin Alc (HbAlc) were measured using a BMC-Hitachi 717 chemistry auto analyzer.
# [4] = system: db/db mice; test: Fasting plasma glucose (FPG) measurement; settings: Ex 2 G3 db/db, Met oral 0.3 mg/g bw/day, dosing 6 weeks
# Protocol: Four to five weeks old db/db mice (BKS.Cg-Dock7^m+/+Lepr^db/JNarl) and m/m mice (BKS.Cg-Dock7^m+/Dock7^m+) were obtained from National Laboratory Animal Center (Nangang, Taipei, Taiwan). These animals were maintained in a facility with a 12-h dark-light cycle at 24±2° C. and 65±5% humidity and were provided food (No. 5001; PMI Nutrition International, Brentwood, Mo.) and water ad libitum. For experiments, the average body weight of m/m mice was approximately 20 g, and that of db/db mice was approximately 30 g.
# For each mouse, blood was sampled from the tail vein and measured for FPG levels using a blood glucose meter (OneTouch UltraEasy, Johnson & Johnson, USA) at a predestined time point.
# [5] = Food and water intake of mice; settings: Ex 3: db/db mice, daily dosing 3 weeks at doses of Table 10
# Protocol: as §1
# [6] = Ex 2 G3 db/db, Met oral 0.3 mg/g bw/day, dosing 6 weeks, week 6
# [7] = Ex 2 G3 db/db, Met oral 0.3 mg/g bw/day, dosing 6 weeks, week 12
# [8] = Ex 3: db/db mice, daily dosing 3 weeks at doses of Table 10, Week 6 (stopped for 3 weeks)
# [9] = Ex 3: db/db mice, daily dosing 3 weeks at doses of Table 10, Week 9 (stopped for 6 weeks)
compound,measurement,setting,value
"CN(C)C(=N)N=C(N)N [Met, metformin]",Body weight,"[1]; Ex 2 G3 db/db, Met oral 0.3 mg/g bw/day, dosing 6 weeks, Baseline",31.17 ± 0.47^b
same,Body weight,"[1]; Ex 2 G3 db/db, Met oral 0.3 mg/g bw/day, dosing 6 weeks, week 1",30.81 ± 0.48^b
same,Body weight,"[1]; Ex 2 G3 db/db, Met oral 0.3 mg/g bw/day, dosing 6 weeks, week 2",32.61 ± 0.46^bc
same,Body weight,"[1]; Ex 2 G3 db/db, Met oral 0.3 mg/g bw/day, dosing 6 weeks, week 3",35.97 ± 0.57^cd
same,Body weight,"[1]; Ex 2 G3 db/db, Met oral 0.3 mg/g bw/day, dosing 6 weeks, week 4",37.47 ± 0.79^c
same,Body weight,"[1]; Ex 2 G3 db/db, Met oral 0.3 mg/g bw/day, dosing 6 weeks, week 5",40.15 ± 0.93^c
same,Body weight,[1]; [6],41.82 ± 0.98^d
same,Body weight,"[1]; Ex 2 G3 db/db, Met oral 0.3 mg/g bw/day, dosing 6 weeks, week 7",42.38 ± 1.25^d
same,Body weight,"[1]; Ex 2 G3 db/db, Met oral 0.3 mg/g bw/day, dosing 6 weeks, week 8",43.04 ± 1.54^d
same,Body weight,"[1]; Ex 2 G3 db/db, Met oral 0.3 mg/g bw/day, dosing 6 weeks, week 9",43.68 ± 1.58^d
same,Body weight,"[1]; Ex 2 G3 db/db, Met oral 0.3 mg/g bw/day, dosing 6 weeks, week 10",43.40 ± 1.4^b
same,Body weight,"[1]; Ex 2 G3 db/db, Met oral 0.3 mg/g bw/day, dosing 6 weeks, week 11",44.15 ± 1.37^b
same,Body weight,[1]; [7],45.24 ± 1.37^b
same,Body weight,"[1]; Ex 2 G3 db/db, Met oral 0.3 mg/g bw/day, dosing 6 weeks, week 13",44.68 ± 1.6^b
same,Body weight,"[1]; Ex 3: db/db mice, daily dosing 3 weeks at doses of Table 10, Baseline",28.9 ± 1^b
same,Body weight,"[1]; Ex 3: db/db mice, daily dosing 3 weeks at doses of Table 10, Final",37.0 ± 1^c
same,Body weight,"[1]; Ex 3: db/db mice, daily dosing 3 weeks at doses of Table 10, Week 3",35.9 ± 1^d
same,Body weight,[1]; [8],39.5 ± 1^c
same,Body weight,[1]; [9],39.7 ± 1^c
same,Oral glucose tolerance (OGT) of db/db mice,"[2]; Ex 2, most time points (ertapenem: weeks 6 and 12)",no significant changes
same,Level of OGTT (blood glucose),"[2]; Ex 2 G3 db/db, Met oral 0.3 mg/g bw/day, dosing 6 weeks, Week 6, 0 min",222 ± 30 mg/dL
same,Level of OGTT (blood glucose),"[2]; Ex 2 G3 db/db, Met oral 0.3 mg/g bw/day, dosing 6 weeks, Week 6, 15 min",828 ± 33^bc
same,Level of OGTT (blood glucose),"[2]; Ex 2 G3 db/db, Met oral 0.3 mg/g bw/day, dosing 6 weeks, Week 6, 30 min",832 ± 42^c
same,Level of OGTT (blood glucose),"[2]; Ex 2 G3 db/db, Met oral 0.3 mg/g bw/day, dosing 6 weeks, Week 6, 60 min",710 ± 86^cd
same,Level of OGTT (blood glucose),"[2]; Ex 2 G3 db/db, Met oral 0.3 mg/g bw/day, dosing 6 weeks, Week 6, 120 min",417 ± 42^cd
same,Level of OGTT (blood glucose),"[2]; Ex 2 G3 db/db, Met oral 0.3 mg/g bw/day, dosing 6 weeks, Week 12, 0 min",267 ± 43^cd
same,Level of OGTT (blood glucose),"[2]; Ex 2 G3 db/db, Met oral 0.3 mg/g bw/day, dosing 6 weeks, Week 12, 15 min",821 ± 47 mg/dL
same,Level of OGTT (blood glucose),"[2]; Ex 2 G3 db/db, Met oral 0.3 mg/g bw/day, dosing 6 weeks, Week 12, 30 min",839 ± 40^cd
same,Level of OGTT (blood glucose),"[2]; Ex 2 G3 db/db, Met oral 0.3 mg/g bw/day, dosing 6 weeks, Week 12, 60 min",741 ± 51^c
same,Level of OGTT (blood glucose),"[2]; Ex 2 G3 db/db, Met oral 0.3 mg/g bw/day, dosing 6 weeks, Week 12, 120 min",564 ± 70^c
same,Level of OGTT (blood glucose),"[2]; Ex 2 G3 db/db, Met oral 0.3 mg/g bw/day, dosing 6 weeks, Week 16, 0 min",215 ± 27 mg/dL
same,Level of OGTT (blood glucose),"[2]; Ex 2 G3 db/db, Met oral 0.3 mg/g bw/day, dosing 6 weeks, Week 16, 15 min",611 ± 24 mg/dL
same,Level of OGTT (blood glucose),"[2]; Ex 2 G3 db/db, Met oral 0.3 mg/g bw/day, dosing 6 weeks, Week 16, 30 min",703 ± 15 mg/dL
same,Level of OGTT (blood glucose),"[2]; Ex 2 G3 db/db, Met oral 0.3 mg/g bw/day, dosing 6 weeks, Week 16, 60 min",637 ± 27 mg/dL
same,Level of OGTT (blood glucose),"[2]; Ex 2 G3 db/db, Met oral 0.3 mg/g bw/day, dosing 6 weeks, Week 16, 120 min",444 ± 62^cd
same,Level of OGTT (blood glucose),"[2]; Ex 2 G3 db/db, Met oral 0.3 mg/g bw/day, dosing 6 weeks, Week 18, 0 min",346 ± 58 mg/dL
same,Level of OGTT (blood glucose),"[2]; Ex 2 G3 db/db, Met oral 0.3 mg/g bw/day, dosing 6 weeks, Week 18, 15 min",836 ± 58 mg/dL
same,Level of OGTT (blood glucose),"[2]; Ex 2 G3 db/db, Met oral 0.3 mg/g bw/day, dosing 6 weeks, Week 18, 30 min",885 ± 73 mg/dL
same,Level of OGTT (blood glucose),"[2]; Ex 2 G3 db/db, Met oral 0.3 mg/g bw/day, dosing 6 weeks, Week 18, 60 min",769 ± 55 mg/dL
same,Level of OGTT (blood glucose),"[2]; Ex 2 G3 db/db, Met oral 0.3 mg/g bw/day, dosing 6 weeks, Week 18, 120 min",589 ± 67^bc
same,OGTT AUC,[2]; [6],1288 ± 93^c
same,OGTT AUC,[2]; [7],1391 ± 94^cd
same,OGTT AUC,"[2]; Ex 2 G3 db/db, Met oral 0.3 mg/g bw/day, dosing 6 weeks, week 16",1143 ± 55^c
same,OGTT AUC,"[2]; Ex 2 G3 db/db, Met oral 0.3 mg/g bw/day, dosing 6 weeks, week 18",1456 ± 85^b
same,OGTT AUC,[2]; [8],1603 ± 46^c
same,OGTT AUC,[2]; [9],1707 ± 43^f
same,ALT,[3],116 ± 12^d U/L
same,AST,[3],194 ± 17^e U/L
same,BUN,[3],37 ± 1^b mg/dL
same,Creatinine,[3],0.517 ± 0.01^e mg/dL
same,HbA1c,[3],6.7 ± 0.2^e %
same,Average FPG level,[4]; week 0,160 ± 21^b
same,Average FPG level,[4]; week 3,136 ± 13^b
same,Average FPG level,[4]; week 6,222 ± 30^b
same,Average FPG level,[4]; week 9,310 ± 25^d
same,Average FPG level,[4]; week 12,267 ± 43^cd
same,Average FPG level,[4]; week 16,215 ± 27^b
same,Average FPG level,[4]; week 18,346 ± 50^b
same,Diet intake,[5],6.2 ± 1^c g/mice/day
same,Water intake,[5],12.1 ± 1^d mL/mice/day
